Columns and labels:
[1] = system: Limnoria lignorum; experiment: Marine field test according to EN 275: rating of attack on tralopyril impregnated Scots pine sapwood by Limnoria l.; format: in vivo; set-up: key to Rating of attack by Limnoria l. 1st year / Rating of attack by Limnoria l. 2nd year: 0: No destruction No visible tunnel or destruction by marine organisms; Little destruction Tunnels are one or a few number and up to cover 15% of total sample area; Moderate destruction Tunnels cover between 15-25% of total sample area; 3: Violent destruction Tunnels cover between 25-50% of total sample area; 4: Fully destruction Tunnels covered more than 50% of total sample area; —: some samples were destroyed the second year (indicated by ‘-’ in Table 1); conditions: for Rating of attack by Limnoria l. 1st year, average / Rating of attack by Limnoria l. 2nd year, average: average of samples, scale 0-4; for Rating of attack by Limnoria l. 1st year, average / Rating of attack by Limnoria l. 1st year: 1 year in seawater; for Rating of attack by Limnoria l. 2nd year, average / Rating of attack by Limnoria l. 2nd year: 2 years in seawater; for Rating of attack by Limnoria l. 1st year / Rating of attack by Limnoria l. 2nd year: single wood samples
Procedure: (§1) The effectiveness to reduce the presence of marine woodborers in wood situated in a marine environment was determined using the guidelines and recommendations in EN 275: 1992—wood preservatives—determination of the protective effectiveness against marine woodborers.
(§2) Wood Material The wood material used for both control groups (untreated) and test groups was Scots pine sapwood (Pinus sylvestris L.). The size of the wood samples was 25×70×200 mm and all pine specimens were pure sapwood and free from defects.
Full cell Impregnation Procedure: • place specimens into a treatments vessel (e.g. an exsiccator) • pull vacuum until 7 hPa is reached and hold said vacuum for 15 minutes • flood specimens under vacuum with treatment solution until the specimens are completely immersed • release vacuum and make sure that samples stay completely immersed while ambient pressure presses treatment solution into the specimens • leave specimens for further 2 hours immersed in the treatment solution • subsequently remove the specimens from the treatment solution, drain drip off solution for some minutes and place the specimens container on inert supports. • keep specimens in the closed container for 3 days (over weekend) for fixation, subsequently open the lid every day a bit more and remove it completely after 4 days • dry specimens in the open container at room temperature further 3 days
1a) Water Dilutable Formulation (Emulsifiable Concentrate)
Tralopyril dissolved in methanol (1600 ppm and 400 ppm).
1a) water dilutable formulation : 228 g and 846 g a.i./ m^3
1b) solvent based formulation : 1087 g a.i./ m^3
Bay (Gullmar fjord) outside the Kristineberg Marine Research Station, 100 km north of Gothenburg, Sweden.
Temperature and salinity of water: Temperature varies between (18-22)° C. in the summer and −1.5° C. in mid-winter. Salinity varies between 26 g/kg and 34 g/kg. Good oxygen level due to a strong water flow.
Borer activity: there is borer activity all around the year. […] The criterion for failure due to Teredo attack (tunnels covering more than 50% of the specimen area as it appears on the X-ray film) is often fulfilled already within 6 months for untreated control specimens. Maximum “service” life of untreated controls is approximately 1.5 years, after which the samples are often broken to pieces by the autumn storms.
Specimens were hung on nylon-bars (diameter =24 mm) of two ladder-like rigs placed on the sea bottom at 6±0.4 m depth at low tide. The test rigs have heavy concrete foundations and each rig was kept upright by a 50 cm diameter buoy. As a result of the arrangement, the specimens are located at depths varying from 4 m to 6.5 m below water surface during the exposure period.
Gribbles: Limnoria lignorum (present but not very active)

[2] = system: Teredo navalis; experiment: Marine field test according to EN 275: rating of attack on tralopyril impregnated Scots pine sapwood by T. navalis; format: in vivo; set-up: key: 0: No destruction No visible tunnel or destruction by marine organisms; Little destruction Tunnels are one or a few number and up to cover 15% of total sample area; Moderate destruction Tunnels cover between 15-25% of total sample area; 3: Violent destruction Tunnels cover between 25-50% of total sample area; 4: Fully destruction Tunnels covered more than 50% of total sample area; —: some samples were destroyed the second year (indicated by ‘-’ in Table 1); conditions: single wood samples; tralopyril retention 1087 g/m^3 (solvent based formulation, methanol); 1 year in seawater
Procedure: as §1, §2
Full cell Impregnation Procedure: • place specimens into a treatments vessel (e.g. an exsiccator) • pull vacuum until 7 hPa is reached and hold said vacuum for 15 minutes • flood specimens under vacuum with treatment solution until the specimens are completely immersed • release vacuum and make sure that samples stay completely immersed while ambient pressure presses treatment solution into the specimens • leave specimens for further 2 hours immersed in the treatment solution • subsequently remove the specimens from the treatment solution, drain drip off solution for some minutes and place the specimens container on inert supports. • keep specimens in the closed container for 3 days (over weekend) for fixation, subsequently open the lid every day a bit more and remove it completely after 4 days • dry specimens in the open container at room temperature further 3 days […]

[3] = tralopyril retention 1087 g/m^3
[4] = tralopyril retention 228 g/m^3 (water dilutable formulation)
[5] = tralopyril retention 846 g/m^3 (water dilutable formulation)
[6] = tralopyril retention 1087 g/m^3 (solvent based formulation, methanol)

N#Cc1c(-c2ccc(Cl)cc2)[nH]c(C(F)(F)F)c1Br [tralopyril, 4-bromo-2-(4-chlorophenyl)-5-(trifluoromethyl)-1H-pyrrole-3-carbonitrile]
0.0: Rating of attack by Limnoria l. 1st year, average ([1]; tralopyril retention 228 g/m^3) | Rating of attack by Limnoria l. 2nd year, average ([1]; tralopyril retention 228 g/m^3) | Rating of attack by Limnoria l. 1st year, average ([1]; tralopyril retention 846 g/m^3) | Rating of attack by Limnoria l. 2nd year, average ([1]; tralopyril retention 846 g/m^3) | Rating of attack by Limnoria l. 1st year, average [1, 3] | Rating of attack by Limnoria l. 2nd year, average [1, 3]
0: Rating of attack by Limnoria l. 1st year [1, 4] | Rating of attack by Limnoria l. 2nd year [1, 4] | Rating of attack by Limnoria l. 1st year [1, 5] | Rating of attack by Limnoria l. 2nd year [1, 5] | Rating of attack by Limnoria l. 1st year [1, 6] | Rating of attack by Limnoria l. 2nd year [1, 6] | Rating of attack by T. navalis 1st year [2]
